# Entries after “also recorded” stand apart in the source; their conditions may differ.
# How the values were obtained:
# HLA-A*0201 = target: T1, HLA-A*0201 (Homo sapiens, UniProt P04439, D140Y/D185E/D98H/E176V/E277Q/G131W/G231S/I119V/I121R/I166T/I218V/L300P/L318F/N151K/N90K/P208A/P217A/Q86G/Q94H/R138H/R169H/T345S); format: binding
# T1 construct: Soluble MHC was dissolved in PBS containing 0.5 mg/ml bovine γ-globulin; made in house
# [1] = tested on: CD8+ T cells of HLA-A2+ human donors; format: cell-based; parameters: key to response compared with WT peptide control, DC model: *: Lower response than WT peptide
# [2] = tested on: splenocytes of WT-vaccinated HLA-A2 tg mice; format: cell-based, mouse; parameters: key to response compared with WT peptide control, mouse splenocytes: *: Lower response than WT peptide
# HLA-A2 transgenic mice = settings: mouse, in vivo; for IFN-γ ELISpot response after restimulation with WT peptide / IFN-γ ELISpot response after restimulation with homologous peptide: sc
# [3] = tested on: […]-specific T cell clone; format: cell-based
Substance,"FP binding score, percentage inhibition of tracer peptide binding, 4h (HLA-A*0201)","FP binding score, percentage inhibition of tracer peptide binding, 24h (HLA-A*0201)","DC model: IFN-γ-positive CD8+ T cells, Average [1]","rank by T cell activation, DC model [1]","Mouse splenocytes (ex vivo assay), Average [2]",IFN-γ ELISpot response after restimulation with WT peptide (HLA-A2 transgenic mice),proportion of vaccinated mice that respond (HLA-A2 transgenic mice),"T cell clone: percentage of IFN-γ producing T cells, Average [3]","response compared with WT peptide control, DC model [1]","rank by T cell activation, mouse splenocytes [2]","response compared with WT peptide control, mouse splenocytes [2]",IFN-γ ELISpot response after restimulation with homologous peptide (HLA-A2 transgenic mice),binding score (HLA-A*0201),number of mice responding to WT peptide restimulation (HLA-A2 transgenic mice),number of mice responding to homologous peptide restimulation (HLA-A2 transgenic mice),"T cell (IFN-γ) response of vaccinated HLA-A2 tg mice, restimulation not specified or both (HLA-A2 transgenic mice)","rank by T cell activation, T cell clone [3]"
G[2-AOC]LGFVFT[PRG] [G26],60%,54%,0.45,Upper 3,61,do not always react to restimulation with WT peptide,–,–,–,–,–,–,–,–,–,–,–
"NMLSTVLGV [NWT, reference compound]",53%,46%,0.04,–,436,–,approximately one out of six,–,–,–,–,–,–,–,–,–,–
[4-PYRA]ILGFVFTL [G15],–,–,0.17,Upper 3,53,–,–,33.4%,G15 ^*,–,–,–,–,–,–,–,–
[4-pyra]ILGFVFTL [G10],–,–,0.14,–,47,–,–,45.4%,–,–,–,–,–,–,–,–,–
[SOME][2-AOC]LSTVLGV [N92],84%,81%,0.04,–,380,did not respond to restimulation,–,–,–,Upper 3,N92 ^*,did not respond to restimulation,–,–,–,–,–
[am-phg]MLSTVLGV [N46],80%,76%,0.02,Lower 3,363,reduced to zero; also recorded: do not always react to restimulation with WT peptide,–,–,–,–,–,increased the responses compared to vaccination with WT peptide,81%,no responders,four,–,–
[am-phg]MYSDFHFI [F111],75%,72%,0.08,–,86,higher responses compared to WT-peptide vaccination; also recorded: higher IFN-γ responses than WT peptide-vaccinated mice,–,–,–,–,–,–,72%,–,–,improved T cell responses; also recorded: improved immunogenicity; also recorded: higher homologous and heterologous responses,–
yILGFVFTL [G9],–,–,0.11,–,20,–,–,1.1%,–,Lower 3,–,–,–,–,–,–,Lower 3

# From publication PMC4917206, “Chemical Modification of Influenza CD8+ T-Cell Epitopes Enhances Their Immunogenicity Regardless of Immunodominance” (PLoS ONE, 2016)
